{
  "source": "paper PMC7845594",
  "about": "“Novel Immune Modulators Enhance Caenorhabditis elegans Resistance to Multiple Pathogens” (mSphere, 2021)",
  "test_system": "C. elegans transcriptome",
  "experiment": "Transcriptome profiling (Affymetrix microarrays), differentially expressed genes",
  "type": "in vivo, Caenorhabditis elegans",
  "conditions": "downregulated genes",
  "description": "To gain additional insight into the effect of LK molecules on C. elegans, young-adult, wild-type worms were treated with each drug at 100 µM for 8 h in the absence of pathogen. RNA was collected, and transcriptome profiling was performed.\nData were determined using Affymetrix microarrays, as described in Materials and Methods. Download Table S3, XLSX file, 0.07 MB.\nTranscriptome profiling was performed on ∼6,000 wild-type, young adult worms incubated with either LK molecules or DMSO for 8 h. RNA isolation was performed using TRIzol extraction, followed by cleanup using RNeasy columns according to the manufacturer’s protocol. Each condition was analyzed in triplicate. Microarray data have been deposited in the GEO database, accession number GSE137516. […] Clustering and generation of the heat map was performed using Cluster 3.0 ([98]) and Treeview ([99]), respectively. Fold change of genes were normalized to average fold change of that gene over all clustered conditions. Genes and conditions were clustered using Euclidean distance and average linkages. […] Microarray data for non-LK molecules were collected from GEO omnibus. WormEXP was used as a secondary method for confirming statistical significance of potential pathways stimulated by each of the LK molecules ([100]). Gene ontologies were generated using DAVID ([101], [102]).",
  "data": [
    {"smiles": "CCN(CC)/N=N/c1ccc(C(=O)O)cc1", "note": "[LK35]", "values": [
      {"measurement": "Fold Change", "setting": "Gene C27H5.4, Affy_ID 181334_s_at", "result": 0.3156},
      {"measurement": "Fold Change", "setting": "Gene C29F4.2, Affy_ID 190884_at", "result": 0.3931},
      {"measurement": "Fold Change", "setting": "Gene C32E8.7, Affy_ID 188220_at", "result": 0.2903},
      {"measurement": "Fold Change", "setting": "Gene C33F10.9, Affy_ID 172834_x_at", "result": 0.1897},
      {"measurement": "Fold Change", "setting": "Gene C34F11.3, Affy_ID 189114_at", "result": 0.4428},
      {"measurement": "Fold Change", "setting": "Gene C34F11.4, Affy_ID 172885_x_at", "result": 0.1632},
      {"measurement": "Fold Change", "setting": "Gene C34F11.6, Affy_ID 172896_x_at", "result": 0.1976},
      {"measurement": "Fold Change", "setting": "Gene C35A5.6, Affy_ID 179396_at", "result": 0.1353},
      {"measurement": "Fold Change", "setting": "Gene C35D10.11, Affy_ID 172630_x_at", "result": 0.1209},
      {"measurement": "Fold Change", "setting": "Gene C44C8.6, Affy_ID 189233_s_at", "result": 0.3734},
      {"measurement": "Fold Change", "setting": "Gene C49F5.1, Affy_ID 174812_at", "result": 0.237},
      {"measurement": "Fold Change", "setting": "Gene C50F7.5, Affy_ID 183381_at", "result": 0.3778},
      {"measurement": "Fold Change", "setting": "Gene CTEL54X.1, Affy_ID 185910_at", "result": 0.2757},
      {"measurement": "Fold Change", "setting": "Gene D1086.2, Affy_ID 177478_at", "result": 0.1132},
      {"measurement": "Fold Change", "setting": "Gene D1086.5, Affy_ID 177666_at", "result": 0.2318},
      {"measurement": "Fold Change", "setting": "Gene D2024.7, Affy_ID 187178_s_at", "result": 0.4973},
      {"measurement": "Fold Change", "setting": "Gene D2045.8, Affy_ID 191879_at", "result": 0.4257},
      {"measurement": "Fold Change", "setting": "Gene D2089.3, Affy_ID 178891_at", "result": 0.3977},
      {"measurement": "Fold Change", "setting": "Gene F02D8.4, Affy_ID 189325_at", "result": 0.3853},
      {"measurement": "Fold Change", "setting": "Gene F07A11.5, Affy_ID 188623_at", "result": 0.4237},
      {"measurement": "Fold Change", "setting": "Gene F08B6.4, Affy_ID 171924_x_at", "result": 0.4112},
      {"measurement": "Fold Change", "setting": "Gene F08G2.1, Affy_ID 192280_s_at", "result": 0.181},
      {"measurement": "Fold Change", "setting": "Gene F53A9.8, Affy_ID 180612_s_at", "result": 0.2385},
      {"measurement": "Fold Change", "setting": "Gene F53F4.13, Affy_ID 182491_at", "result": 0.306},
      {"measurement": "Fold Change", "setting": "Gene F54F11.2, Affy_ID 191753_at", "result": 0.2877},
      {"measurement": "Fold Change", "setting": "Gene F55F3.2, Affy_ID 189534_at", "result": 0.2425},
      {"measurement": "Fold Change", "setting": "Gene F55G1.3, Affy_ID 172702_x_at", "result": 0.3727},
      {"measurement": "Fold Change", "setting": "Gene F58A4.7, Affy_ID 171841_x_at", "result": 0.2717},
      {"measurement": "Fold Change", "setting": "Gene F58A6.8, Affy_ID 172889_x_at", "result": 0.1742},
      {"measurement": "Fold Change", "setting": "Gene F58A6.9, Affy_ID 172743_x_at", "result": 0.2732},
      {"measurement": "Fold Change", "setting": "Gene F58B3.1, Affy_ID 178236_s_at", "result": 0.3338},
      {"measurement": "Fold Change", "setting": "Gene F58G1.4, Affy_ID 177978_at", "result": 0.2272},
      {"measurement": "Fold Change", "setting": "Gene F59B2.5, Affy_ID 187071_at", "result": 0.4863},
      {"measurement": "Fold Change", "setting": "Gene H02I12.6, Affy_ID 172891_x_at", "result": 0.4113},
      {"measurement": "Fold Change", "setting": "Gene H12C20.3, Affy_ID 192782_at", "result": 0.1769},
      {"measurement": "Fold Change", "setting": "Gene H12D21.1, Affy_ID 172431_x_at", "result": 0.176},
      {"measurement": "Fold Change", "setting": "Gene H36L18.2, Affy_ID 179787_at", "result": 0.4486},
      {"measurement": "Fold Change", "setting": "Gene K02C4.2, Affy_ID 178299_at", "result": 0.2893},
      {"measurement": "Fold Change", "setting": "Gene K02D7.1, Affy_ID 189003_s_at", "result": 0.4157},
      {"measurement": "Fold Change", "setting": "Gene K03H1.10, Affy_ID 179875_at", "result": 0.3898},
      {"measurement": "Fold Change", "setting": "Gene K03H6.2, Affy_ID 183309_at", "result": 0.3456},
      {"measurement": "Fold Change", "setting": "Gene K05F1.2, Affy_ID 172815_x_at", "result": 0.2488},
      {"measurement": "Fold Change", "setting": "Gene K05F1.7, Affy_ID 172904_x_at", "result": 0.1812},
      {"measurement": "Fold Change", "setting": "Gene K06C4.12, Affy_ID 172685_x_at", "result": 0.3916},
      {"measurement": "Fold Change", "setting": "Gene K07E8.3, Affy_ID 180256_at", "result": 0.04574},
      {"measurement": "Fold Change", "setting": "Gene K07F5.2, Affy_ID 172852_x_at", "result": 0.1696},
      {"measurement": "Fold Change", "setting": "Gene K07F5.3, Affy_ID 172907_x_at", "result": 0.1824},
      {"measurement": "Fold Change", "setting": "Gene K07F5.5, Affy_ID 172245_x_at", "result": 0.3189},
      {"measurement": "Fold Change", "setting": "Gene K08F4.8, Affy_ID 172934_x_at", "result": 0.1666},
      {"measurement": "Fold Change", "setting": "Gene K08F8.4, Affy_ID 193649_s_at", "result": 0.4028},
      {"measurement": "Fold Change", "setting": "Gene K10F12.4, Affy_ID 185815_at", "result": 0.3079},
      {"measurement": "Fold Change", "setting": "Gene M01D7.5, Affy_ID 173242_s_at", "result": 0.2324},
      {"measurement": "Fold Change", "setting": "Gene M05D6.7, Affy_ID 193914_at", "result": 0.3025},
      {"measurement": "Fold Change", "setting": "Gene M6.1, Affy_ID 193073_at", "result": 0.2608},
      {"measurement": "Fold Change", "setting": "Gene M18.1, Affy_ID 173632_s_at", "result": 0.1786},
      {"measurement": "Fold Change", "setting": "Gene M163.1, Affy_ID 177298_at", "result": 0.4161},
      {"measurement": "Fold Change", "setting": "Gene R01E6.3, Affy_ID 189628_at", "result": 0.3449},
      {"measurement": "Fold Change", "setting": "Gene R03E9.1, Affy_ID 193723_s_at", "result": 0.1079},
      {"measurement": "Fold Change", "setting": "Gene R04B5.9, Affy_ID 191440_at", "result": 0.2481},
      {"measurement": "Fold Change", "setting": "Gene R05F9.3, Affy_ID 172725_x_at", "result": 0.3857},
      {"measurement": "Fold Change", "setting": "Gene R05F9.8, Affy_ID 172724_x_at", "result": 0.1853},
      {"measurement": "Fold Change", "setting": "Gene R05G6.10, Affy_ID 192058_at", "result": 0.3689},
      {"measurement": "Fold Change", "setting": "Gene R07B1.3, Affy_ID 190822_s_at", "result": 0.3753},
      {"measurement": "Fold Change", "setting": "Gene R12C12.1, Affy_ID 190616_at", "result": 0.3455},
      {"measurement": "Fold Change", "setting": "Gene R12E2.9, Affy_ID 180698_s_at", "result": 0.2329},
      {"measurement": "Fold Change", "setting": "Gene R52.3, Affy_ID 177369_at", "result": 0.433},
      {"measurement": "Fold Change", "setting": "Gene T01C3.4, Affy_ID 188106_at", "result": 0.01178},
      {"measurement": "Fold Change", "setting": "Gene T01D3.6, Affy_ID 194060_s_at", "result": 0.3484},
      {"measurement": "Fold Change", "setting": "Gene T02B11.3, Affy_ID 174051_s_at", "result": 0.4315},
      {"measurement": "Fold Change", "setting": "Gene T03D8.2, Affy_ID 190280_at", "result": 0.4443},
      {"measurement": "Fold Change", "setting": "Gene T07C4.4, Affy_ID 178149_s_at", "result": 0.4269},
      {"measurement": "Fold Change", "setting": "Gene T07G12.5, Affy_ID 188496_s_at", "result": 0.1018},
      {"measurement": "Fold Change", "setting": "Gene T08B1.6, Affy_ID 192296_at", "result": 0.1305},
      {"measurement": "Fold Change", "setting": "Gene T08B2.12, Affy_ID 184685_s_at", "result": 0.1145},
      {"measurement": "Fold Change", "setting": "Gene T09F5.9, Affy_ID 188947_at", "result": 0.2413},
      {"measurement": "Fold Change", "setting": "Gene T15B7.9, Affy_ID 182858_at", "result": 0.3683},
      {"measurement": "Fold Change", "setting": "Gene T19H5.4, Affy_ID 186755_s_at", "result": 0.3412},
      {"measurement": "Fold Change", "setting": "Gene T20B3.2, Affy_ID 188278_s_at", "result": 0.3943},
      {"measurement": "Fold Change", "setting": "Gene T20D4.11, Affy_ID 184438_at", "result": 0.05764},
      {"measurement": "Fold Change", "setting": "Gene T20G5.7, Affy_ID 172218_x_at", "result": 0.3082},
      {"measurement": "Fold Change", "setting": "Gene T22H2.6, Affy_ID 180962_s_at", "result": 0.3753}
    ]}
  ]
}
